12 molecules from paper PMC11259696, “Small molecule MarR modulators potentiate metronidazole antibiotic activity in aerobic E. coli by inducing activation by the nitroreductase NfsA” (The Journal of Biological Chemistry, 2024) can be followed below.

In brackets after ≈: the same amount, converted by molar mass. Some results are limits rather than exact numbers.

What is called Kd is the constant that tells how readily two partners part at equilibrium. As a reminder, the IC50 is the concentration that inhibits the measured activity by half. Read a high IC50 as weaker potency.

One data set has as its target T1, MarR (Escherichia coli, UniProt P27245).
T1 construct: recombinant His-tagged MarR (pET15b, gene from BW25113)
The data set is described as follows: thermal shift assay with Kd (ΔTm […] °C); EMSA release of marO DNA (EC50 […]). In kind it is binding. In general terms: A gel shift assay detects complexes by their altered migration in electrophoresis.

In the next data set the test system is T2, E. coli ΔtolC.
T2 construct: BW25113 ΔtolC efflux-deficient tolC deletion strain
The data set is described as follows: microbe, parasite or virus in culture. To be noted: Escherichia coli, 5 h; MIC90, antibiotic alone, aerobic; read-out: MIC90 against E. coli ∆tolC under aerobic conditions (µg/mL) / Alone. On the set-up: resazurin microtiter MIC90 in CAMHB, aerobic, 2-fold dilutions, fluorescence; turnover below 10% of control. The procedure:
The MIC was determined using the colorimetric resazurin microtiter assay. Experiments were performed in 96-well plate format with a 100 μl final volume. Briefly, a suspension of an E. coli strain of interest was prepared in CAMHB (BD) at an A600 of 0.001. When required, boosters or arabinose were added to the suspension, and MTZ or NFZ antibiotics were tested in a concentration gradient through serial 2-fold dilutions. After 5 h of incubation at 37 °C, 10 μl of resazurin 12.5% was added to each well, and an additional incubation was carried out for 1.5 h. Fluorescence was measured using a Fluostar Optima BMG Labtech (Ex: 530 nm; Em: 590 nm). Values were converted to resazurin turnover based on minimal (no bacteria added to the medium) and maximal (no antibiotic added) fluorescence values. MIC90 values were determined when resaruzin turnover was ˂10% of control.

Data set [1] addresses T3, NfsA (Escherichia coli, UniProt P17117).
T3 construct: recombinant His-tagged NfsA (pET28, gene from BW25113)
T3 sequence (P17117 1-240): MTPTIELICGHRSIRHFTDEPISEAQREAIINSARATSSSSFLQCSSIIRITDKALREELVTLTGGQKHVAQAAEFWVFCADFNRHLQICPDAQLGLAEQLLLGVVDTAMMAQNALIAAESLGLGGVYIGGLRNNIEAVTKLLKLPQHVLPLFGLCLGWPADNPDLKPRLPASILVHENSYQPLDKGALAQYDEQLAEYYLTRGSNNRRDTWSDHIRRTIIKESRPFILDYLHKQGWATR
Briefly: EPR detection of MTZ radical anion formed by purified NfsA (1-electron reduction); NADPH consumption by UHPLC-MS. In kind it is biochemical.

For data set [2], the target named is T3, NfsA. Briefly: UHPLC-MS of NADPH consumption and NADP+ production by purified NfsA. In kind it is biochemical.
The target in data set [3] is T3, NfsA. Briefly: UHPLC-MS turnover by purified NfsA with NADPH consumption and GSH trapping. Format: biochemical.
Data set [4] deals with T3, NfsA. Briefly: reduction by purified recombinant NfsA (2-electron reduction). In kind it is biochemical.
Data set [5] has as its system MarR (His-tagged) (Escherichia coli BW25113). Briefly: EMSA. To be noted: EMSA: His-MarR 5 uM preincubated with BDM76441 15 min 25 C, then 100 nM marO 15 min 25 C (10 ul); 6% DNA retardation gel, 0.5x TBE, 150 V 45 min; binding ….

T1 sequence (P27245 whole entry): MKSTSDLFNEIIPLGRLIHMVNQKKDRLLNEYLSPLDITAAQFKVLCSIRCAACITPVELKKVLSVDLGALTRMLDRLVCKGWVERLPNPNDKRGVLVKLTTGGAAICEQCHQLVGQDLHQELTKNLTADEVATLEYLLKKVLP

With `O=C(Nc1ccc(I)cc1C(=O)O)c1cccs1` [BDM76441], the Kd on MarR amounted to 9.8 ± 1.6 µM. In the case of `O=C(Cn1ccnc1[N+](=O)[O-])NCc1ccccc1` [Benznidazole], the MIC90 with E. coli ΔtolC amounted to 62.5 µg/mL (≈ 240 µM). For `Cc1ncc([N+](=O)[O-])n1C` [Dimetridazole], the MIC90 in the data set on E. coli ΔtolC was greater than 500 µg/mL.

With `Cc1ncc([N+](=O)[O-])n1CCO` [MTZ, metronidazole], the “EPR detection of MTZ radical anion formed by purified NfsA (1-electron reduction)” value on NfsA [1] is given as “these results confirmed the formation of MTZ radical anions by NfsA under aerobic conditions”. In addition, the MIC90 with E. coli ΔtolC was greater than 500 µg/mL. For the molecule `NC(=O)C1=CN([C@@H]2O[C@H](COP(=O)(O)OP(=O)(O)OC[C@H]3O[C@@H](n4cnc5c(N)ncnc54)[C@H](OP(=O)(O)O)[C@@H]3O)[C@@H](O)[C@H]2O)C=CC1` [NADPH], on NfsA [2], the “UHPLC-MS of NADPH consumption and NADP+ production by purified NfsA” value was “rapid biotransformation of NFZ accompanied by a conversion of NADPH to NADP+ as measured by UHPLC-MS analysis”.

Consider `NC(=O)N/N=C/c1ccc([N+](=O)[O-])o1` [NFZ, nitrofurazone], for which the MIC90 in the data set on E. coli ΔtolC amounted to 15.6 µg/mL (≈ 78.7 µM). The “UHPLC-MS turnover by purified NfsA with NADPH consumption and GSH trapping” value at NfsA [3] is “with purified recombinant NfsA, we observed a rapid biotransformation of NFZ accompanied by a conversion of NADPH to NADP+”. Regarding `O=[N+]([O-])c1cncn1CCN1CCOCC1` [Nimorazole], the MIC90 in the data set with E. coli ΔtolC was greater than 500 µg/mL. In the case of `Cc1ncc([N+](=O)[O-])n1CC(O)CCl` (centres unmarked) [Ornidazole], in the data set on E. coli ΔtolC, the MIC90 was greater than 500 µg/mL.

Turning to `Cc1ncc([N+](=O)[O-])n1CC(C)O` (centres unmarked) [Secnidazole], the MIC90 in the data set on E. coli ΔtolC was greater than 500 µg/mL.

For `Cc1ncc([N+](=O)[O-])n1CCCO` [Ternidazole], in the data set with E. coli ΔtolC, the MIC90 was greater than 500 µg/mL. Regarding `CC1=CC(=O)c2ccccc2C1=O` [menadione], the “reduction by purified recombinant NfsA (2-electron reduction)” value on NfsA [4] was “confirmed that NfsA could reduce both menadione (2-electron reduction) and ferrocyanide (1-electron reduction)”. marO (marRAB promoter PCR fragment) had an IC50 in data set [5] of 38 µM.
